# From ChEMBL document CHEMBL1201862, “PubChem BioAssay data set” (2004)
# Calls of active or inactive are those of the source.
# Key:
# Genome polyprotein [1] = target: Genome polyprotein (Hepatitis C virus, UniProt Q2Q167); experiment: disruption of hepatitis C core self-association – biochemical, TR-FRET, dose response (AID 2159); design: species or system Hepacivirus hominis;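 also: blocks dimerization of HCV core protein measured by TR-FRET between tagged core106 pairs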
# SUMO-activating enzyme [2] = target: T1, SUMO-activating enzyme (Homo sapiens, UniProt Q9UBT2); experiment: blockers of SAE1/SAE2–UBC9 SUMO transfer – biochemical, HTRF, uHTS, primary screen (AID 2006); format: protein-complex assay
# T1 sequence (Q9UBE0 whole entry): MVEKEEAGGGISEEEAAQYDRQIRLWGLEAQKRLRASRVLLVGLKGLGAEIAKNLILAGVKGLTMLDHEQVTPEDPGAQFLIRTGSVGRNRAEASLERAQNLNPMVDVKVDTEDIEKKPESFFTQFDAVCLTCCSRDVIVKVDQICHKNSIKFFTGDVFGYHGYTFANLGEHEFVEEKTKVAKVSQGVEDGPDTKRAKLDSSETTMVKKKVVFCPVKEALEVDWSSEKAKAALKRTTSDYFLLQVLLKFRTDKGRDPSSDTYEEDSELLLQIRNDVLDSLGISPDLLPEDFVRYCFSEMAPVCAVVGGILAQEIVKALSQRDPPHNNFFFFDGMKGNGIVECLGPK
# T1 sequence (Q9UBT2 whole entry): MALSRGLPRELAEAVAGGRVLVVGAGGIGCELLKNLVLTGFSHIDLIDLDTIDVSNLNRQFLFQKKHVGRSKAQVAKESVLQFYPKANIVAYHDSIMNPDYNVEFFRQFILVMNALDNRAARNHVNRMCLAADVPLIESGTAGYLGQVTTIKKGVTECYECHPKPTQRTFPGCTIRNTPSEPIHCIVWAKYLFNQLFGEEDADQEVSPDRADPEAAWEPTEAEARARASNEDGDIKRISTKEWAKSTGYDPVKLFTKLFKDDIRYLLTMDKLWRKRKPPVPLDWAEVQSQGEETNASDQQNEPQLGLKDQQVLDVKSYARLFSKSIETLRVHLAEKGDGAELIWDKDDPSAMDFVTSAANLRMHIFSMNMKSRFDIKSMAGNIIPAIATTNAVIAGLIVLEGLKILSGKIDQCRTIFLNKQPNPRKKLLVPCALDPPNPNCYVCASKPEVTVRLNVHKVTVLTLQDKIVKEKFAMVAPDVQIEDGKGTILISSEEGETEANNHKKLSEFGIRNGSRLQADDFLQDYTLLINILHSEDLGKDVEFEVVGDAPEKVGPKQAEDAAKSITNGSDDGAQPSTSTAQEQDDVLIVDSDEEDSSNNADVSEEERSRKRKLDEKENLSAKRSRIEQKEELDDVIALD
# SUMO-activating enzyme [3] = target: T1, SUMO-activating enzyme; experiment: blockers of UBC9-mediated SUMO conjugation – biochemical, AlphaScreen, SUMOylation inhibitor project, confirmation (AID 2018); format: functional
# Genome polyprotein [4] = target: Genome polyprotein (dengue virus type 2, UniProt P29990); experiment: flavivirus cap methylation enzyme inhibition – biochemical, confirmation dose response, primary screen (AID 588689); format: functional
# Sequence of Genome polyprotein (dengue virus type 2, UniProt P29990) (P29990 2492-3391 limits assumed): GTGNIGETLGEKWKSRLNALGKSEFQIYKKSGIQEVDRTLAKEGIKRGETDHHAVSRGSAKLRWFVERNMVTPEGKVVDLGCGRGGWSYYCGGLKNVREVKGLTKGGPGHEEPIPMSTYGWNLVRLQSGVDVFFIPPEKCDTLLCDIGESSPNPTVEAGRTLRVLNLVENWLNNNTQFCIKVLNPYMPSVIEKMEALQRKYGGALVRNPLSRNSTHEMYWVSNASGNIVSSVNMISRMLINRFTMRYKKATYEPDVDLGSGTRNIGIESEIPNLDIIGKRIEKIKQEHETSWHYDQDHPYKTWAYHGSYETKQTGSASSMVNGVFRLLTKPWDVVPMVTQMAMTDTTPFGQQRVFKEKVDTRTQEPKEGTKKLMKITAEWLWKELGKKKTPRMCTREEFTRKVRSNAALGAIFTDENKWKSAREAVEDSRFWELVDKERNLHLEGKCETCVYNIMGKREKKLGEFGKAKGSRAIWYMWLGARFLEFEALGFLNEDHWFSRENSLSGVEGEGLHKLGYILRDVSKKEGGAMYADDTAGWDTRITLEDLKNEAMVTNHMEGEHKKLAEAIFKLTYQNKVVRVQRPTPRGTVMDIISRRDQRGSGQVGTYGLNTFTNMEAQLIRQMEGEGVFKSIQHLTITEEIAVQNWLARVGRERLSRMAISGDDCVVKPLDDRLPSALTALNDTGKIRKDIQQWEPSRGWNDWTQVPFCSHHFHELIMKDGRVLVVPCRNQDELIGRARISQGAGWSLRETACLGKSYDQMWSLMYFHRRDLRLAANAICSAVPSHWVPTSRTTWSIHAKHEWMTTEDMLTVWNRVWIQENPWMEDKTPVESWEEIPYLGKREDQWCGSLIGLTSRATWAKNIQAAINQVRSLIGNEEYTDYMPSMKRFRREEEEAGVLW
# Streptokinase A = target: T2, Streptokinase A (Streptococcus pyogenes serotype M1, UniProt P10520); experiment: viability-normalized secreted streptokinase activity reduction – plasminogen activation absorbance, OD405, dose response (AID 1914); format: functional, Streptococcus pyogenes M1 GAS;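 also: secreted streptokinase activity via plasminogen activation per viability signal from cell pellet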
# T2 sequence (P10520 whole entry): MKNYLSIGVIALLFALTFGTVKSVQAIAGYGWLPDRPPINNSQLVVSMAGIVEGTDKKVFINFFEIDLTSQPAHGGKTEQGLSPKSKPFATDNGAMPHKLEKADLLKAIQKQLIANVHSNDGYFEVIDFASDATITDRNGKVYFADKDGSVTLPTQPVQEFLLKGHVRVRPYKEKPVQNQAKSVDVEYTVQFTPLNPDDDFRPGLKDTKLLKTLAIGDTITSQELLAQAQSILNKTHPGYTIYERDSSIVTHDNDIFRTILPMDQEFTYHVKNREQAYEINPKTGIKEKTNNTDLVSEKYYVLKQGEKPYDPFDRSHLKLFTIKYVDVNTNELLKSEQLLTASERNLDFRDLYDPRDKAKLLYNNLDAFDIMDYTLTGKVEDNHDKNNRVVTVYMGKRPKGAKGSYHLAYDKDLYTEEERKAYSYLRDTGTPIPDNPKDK
# Streptococcus = experiment: GAS UMAA2166 growth inhibition – luminescence, BacTiterGlo, counter-screen for streptokinase expression inhibitor project, dose response (AID 1915); format: functional, organism-based;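 also: potency for reduction of bacterial viability or growth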
# [5] = test system: Streptococcus sp. 'group A'; experiment: Streptococcus pyogenes SK(-)GAS viability under kanamycin – luminescence, BacTiterGlo, confirmation, counter-screen for streptokinase expression inhibitor project, dose response (AID 1900); format: functional, organism-based
# [6] = target: Heat shock protein HSP 90-alpha (Homo sapiens, UniProt P07900); experiment: Luminescence-based dose response biochemical high throughput screening assay for inhibitors of the Heat Shock Protein 90 (HSP90). [Related pubchem assays: 1831 (Summary AID.), 1846 (Confirmation screen.), 1789 (Primary screen.)]
# HEK293 = experiment: EBV LMP1 TES2 canonical NF-kB signalling blockers – cell-based, HEK293, luciferase, cherry-pick, dose response (AID 588343); format: functional; details: Homo sapiens
# [7] = viability loss of HPDE-C7K cells – cell-based, fluorescence, HTS, primary screen (AID 431); format: functional; details: Homo sapiens
# [8] = reduction of Shn3 3'UTR-driven luciferase in osteoblasts – cell-based, Clone20 osteoblasts, firefly luciferase, cherry-picked, dose response (AID 624132); format: functional;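 also: firefly luciferase luminescence from reporter carrying the Shn3 3'UTR in osteoblasts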
# [9] = HPDE-C7 pancreatic duct cell viability loss – fluorescence, HTS (AID 430); format: functional, cell-based; details: Homo sapiens
# cells = format: functional, cell-based; details: HEK-CNG
# [10] = non-specific 3'UTR reporter inhibition in Clone20-Shn3RL – cell-based, Renilla luciferase, cherry-picked, counter-screen for Shn3 inhibitor project, dose response (AID 624133); format: functional
# Galanin receptor type 3 = Galanin receptor type 3 (Homo sapiens, UniProt O60755); experiment: Fluorescence-based cell-based primary high throughput dose response assay to identify antagonists of the Galanin Receptor 3 (GalR3).; format: functional
# Sequence of Galanin receptor type 3 (O60755 whole entry): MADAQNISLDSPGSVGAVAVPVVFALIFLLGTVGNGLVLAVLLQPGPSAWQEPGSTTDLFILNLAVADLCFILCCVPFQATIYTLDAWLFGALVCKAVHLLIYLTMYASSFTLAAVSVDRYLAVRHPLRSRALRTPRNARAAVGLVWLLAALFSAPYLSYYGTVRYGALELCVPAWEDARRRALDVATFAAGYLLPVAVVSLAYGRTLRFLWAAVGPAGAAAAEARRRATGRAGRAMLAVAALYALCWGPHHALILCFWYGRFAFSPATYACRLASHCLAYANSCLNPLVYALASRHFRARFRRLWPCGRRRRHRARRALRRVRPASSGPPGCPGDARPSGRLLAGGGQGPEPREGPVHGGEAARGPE
# [11] = target: Sphingosine 1-phosphate receptor 2 (Homo sapiens, UniProt O95136); experiment: Dose Response Cell Based Assay for Antagonists of the S1P2 Receptor. [Related pubchem assays: 856, 736 ]; format: functional
# Sequence of Sphingosine 1-phosphate receptor 2 (O95136 whole entry): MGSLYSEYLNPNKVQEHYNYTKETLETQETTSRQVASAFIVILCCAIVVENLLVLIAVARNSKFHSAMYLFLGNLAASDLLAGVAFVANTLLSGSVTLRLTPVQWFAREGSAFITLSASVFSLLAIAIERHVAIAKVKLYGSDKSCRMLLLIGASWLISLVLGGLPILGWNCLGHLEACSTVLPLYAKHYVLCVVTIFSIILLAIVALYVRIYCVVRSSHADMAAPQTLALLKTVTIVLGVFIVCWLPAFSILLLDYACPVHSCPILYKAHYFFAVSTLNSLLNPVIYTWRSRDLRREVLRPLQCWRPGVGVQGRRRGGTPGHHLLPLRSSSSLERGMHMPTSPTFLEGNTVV
# [12] = loss of viability in HepG2 cells – cell-based, CellTiter-Glo, cherry-picked, cytotoxicity control for Shn3 inhibitor project, dose response (AID 624134); format: functional
# [13] = target: Mitogen-activated protein kinase 10 (Homo sapiens, UniProt P53779); experiment: Dose response biochemical screening assay for inhibitors of c-Jun N-Terminal Kinase 3 (JNK3). [Related pubchem assays: 746 ]
# Sequence of Mitogen-activated protein kinase 10 (P53779 whole entry): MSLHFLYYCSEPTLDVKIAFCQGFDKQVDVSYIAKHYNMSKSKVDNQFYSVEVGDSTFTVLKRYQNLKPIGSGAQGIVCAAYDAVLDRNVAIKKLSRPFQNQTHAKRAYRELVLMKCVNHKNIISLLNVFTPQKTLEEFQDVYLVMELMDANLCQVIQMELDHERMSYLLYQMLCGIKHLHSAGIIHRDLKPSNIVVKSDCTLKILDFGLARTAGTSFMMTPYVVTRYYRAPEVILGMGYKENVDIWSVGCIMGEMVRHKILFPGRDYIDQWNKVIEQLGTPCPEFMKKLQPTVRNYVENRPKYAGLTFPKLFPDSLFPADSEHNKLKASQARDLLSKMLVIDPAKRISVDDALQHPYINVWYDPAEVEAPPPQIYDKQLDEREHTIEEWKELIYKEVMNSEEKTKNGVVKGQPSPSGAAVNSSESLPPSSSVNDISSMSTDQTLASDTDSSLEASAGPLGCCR
# [14] = target: T3, Dual specificity protein phosphatase 6 (Rattus norvegicus, UniProt Q64346); experiment: inhibition of rat DUSP6 enzyme activity – biochemical, in vitro, primary screen (AID 425)
# T3 sequence (Q64346 whole entry): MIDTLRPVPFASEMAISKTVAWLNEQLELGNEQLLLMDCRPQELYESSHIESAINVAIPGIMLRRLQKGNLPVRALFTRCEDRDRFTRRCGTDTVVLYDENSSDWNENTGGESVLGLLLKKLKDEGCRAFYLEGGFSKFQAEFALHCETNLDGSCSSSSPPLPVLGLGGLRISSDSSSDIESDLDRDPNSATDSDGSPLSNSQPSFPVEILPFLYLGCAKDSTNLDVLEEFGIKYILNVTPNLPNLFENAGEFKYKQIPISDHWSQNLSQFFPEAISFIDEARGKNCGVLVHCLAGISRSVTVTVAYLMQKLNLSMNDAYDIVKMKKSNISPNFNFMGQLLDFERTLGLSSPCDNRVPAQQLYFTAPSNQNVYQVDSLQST
# [15] = target: T4, Carboxy-terminal domain RNA polymerase II polypeptide A small phosphatase 1 (Homo sapiens, UniProt Q9GZU7); experiment: CTDSP1 inhibitors, concentration-response, biochemical, absorbance readout, ultra-high-throughput screen actives (AID 540297); format: functional
# T4 sequence (Q9GZU7 whole entry): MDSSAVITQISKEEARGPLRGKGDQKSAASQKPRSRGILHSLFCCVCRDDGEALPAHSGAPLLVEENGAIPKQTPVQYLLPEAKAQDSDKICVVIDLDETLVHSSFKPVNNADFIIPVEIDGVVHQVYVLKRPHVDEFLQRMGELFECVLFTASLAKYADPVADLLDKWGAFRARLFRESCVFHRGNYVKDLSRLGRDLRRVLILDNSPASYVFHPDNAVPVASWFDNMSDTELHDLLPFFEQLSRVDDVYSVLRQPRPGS
# [16] = target: T5, Zinc finger protein mex-5 (Caenorhabditis elegans, UniProt Q9XUB2); experiment: potency of MEX-5 RNA-binding blockers – biochemical, C. elegans, fluorescence polarization, dose response (AID 1960)
# T5 sequence (Q9XUB2 whole entry): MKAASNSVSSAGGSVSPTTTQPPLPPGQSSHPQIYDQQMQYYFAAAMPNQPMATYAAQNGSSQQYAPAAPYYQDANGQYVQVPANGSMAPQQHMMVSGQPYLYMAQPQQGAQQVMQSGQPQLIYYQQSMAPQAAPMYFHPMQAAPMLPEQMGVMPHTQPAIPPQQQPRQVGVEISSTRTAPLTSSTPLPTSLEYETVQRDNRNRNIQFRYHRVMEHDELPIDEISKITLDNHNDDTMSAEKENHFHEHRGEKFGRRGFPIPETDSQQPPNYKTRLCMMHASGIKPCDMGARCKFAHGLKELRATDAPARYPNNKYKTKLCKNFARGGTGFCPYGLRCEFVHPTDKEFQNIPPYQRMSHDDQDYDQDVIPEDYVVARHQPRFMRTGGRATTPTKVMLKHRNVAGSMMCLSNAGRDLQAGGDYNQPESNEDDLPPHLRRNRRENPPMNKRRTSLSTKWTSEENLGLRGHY
# [17] = target: Bifunctional protein GlmU (Mycobacterium tuberculosis, UniProt P9WMN3); experiment: Inhibitors of Mycobacterial Glucosamine-1-phosphate acetyl transferase (GlmU). Secondary screen.; design: species or system Mycobacterium tuberculosis H37Rv
# Sequence of Bifunctional protein GlmU (P9WMN3 whole entry): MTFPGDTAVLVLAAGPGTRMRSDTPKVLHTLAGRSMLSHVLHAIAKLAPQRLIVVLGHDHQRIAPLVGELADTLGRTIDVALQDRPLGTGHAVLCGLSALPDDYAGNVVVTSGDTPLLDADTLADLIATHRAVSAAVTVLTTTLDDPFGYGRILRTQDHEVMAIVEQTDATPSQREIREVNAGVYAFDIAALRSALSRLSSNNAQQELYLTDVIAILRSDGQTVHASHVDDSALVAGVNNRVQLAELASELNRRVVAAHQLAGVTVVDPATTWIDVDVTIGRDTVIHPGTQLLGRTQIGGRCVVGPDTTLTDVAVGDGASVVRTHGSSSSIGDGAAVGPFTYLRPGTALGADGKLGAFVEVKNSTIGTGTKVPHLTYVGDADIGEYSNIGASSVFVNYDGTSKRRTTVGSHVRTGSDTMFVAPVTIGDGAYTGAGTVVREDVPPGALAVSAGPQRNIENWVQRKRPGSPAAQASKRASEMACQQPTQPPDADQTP
# [18] = target: T6, Histone-lysine N-methyltransferase NSD2 (Homo sapiens, UniProt O96028); format: biochemical
# T6 sequence (O96028 whole entry): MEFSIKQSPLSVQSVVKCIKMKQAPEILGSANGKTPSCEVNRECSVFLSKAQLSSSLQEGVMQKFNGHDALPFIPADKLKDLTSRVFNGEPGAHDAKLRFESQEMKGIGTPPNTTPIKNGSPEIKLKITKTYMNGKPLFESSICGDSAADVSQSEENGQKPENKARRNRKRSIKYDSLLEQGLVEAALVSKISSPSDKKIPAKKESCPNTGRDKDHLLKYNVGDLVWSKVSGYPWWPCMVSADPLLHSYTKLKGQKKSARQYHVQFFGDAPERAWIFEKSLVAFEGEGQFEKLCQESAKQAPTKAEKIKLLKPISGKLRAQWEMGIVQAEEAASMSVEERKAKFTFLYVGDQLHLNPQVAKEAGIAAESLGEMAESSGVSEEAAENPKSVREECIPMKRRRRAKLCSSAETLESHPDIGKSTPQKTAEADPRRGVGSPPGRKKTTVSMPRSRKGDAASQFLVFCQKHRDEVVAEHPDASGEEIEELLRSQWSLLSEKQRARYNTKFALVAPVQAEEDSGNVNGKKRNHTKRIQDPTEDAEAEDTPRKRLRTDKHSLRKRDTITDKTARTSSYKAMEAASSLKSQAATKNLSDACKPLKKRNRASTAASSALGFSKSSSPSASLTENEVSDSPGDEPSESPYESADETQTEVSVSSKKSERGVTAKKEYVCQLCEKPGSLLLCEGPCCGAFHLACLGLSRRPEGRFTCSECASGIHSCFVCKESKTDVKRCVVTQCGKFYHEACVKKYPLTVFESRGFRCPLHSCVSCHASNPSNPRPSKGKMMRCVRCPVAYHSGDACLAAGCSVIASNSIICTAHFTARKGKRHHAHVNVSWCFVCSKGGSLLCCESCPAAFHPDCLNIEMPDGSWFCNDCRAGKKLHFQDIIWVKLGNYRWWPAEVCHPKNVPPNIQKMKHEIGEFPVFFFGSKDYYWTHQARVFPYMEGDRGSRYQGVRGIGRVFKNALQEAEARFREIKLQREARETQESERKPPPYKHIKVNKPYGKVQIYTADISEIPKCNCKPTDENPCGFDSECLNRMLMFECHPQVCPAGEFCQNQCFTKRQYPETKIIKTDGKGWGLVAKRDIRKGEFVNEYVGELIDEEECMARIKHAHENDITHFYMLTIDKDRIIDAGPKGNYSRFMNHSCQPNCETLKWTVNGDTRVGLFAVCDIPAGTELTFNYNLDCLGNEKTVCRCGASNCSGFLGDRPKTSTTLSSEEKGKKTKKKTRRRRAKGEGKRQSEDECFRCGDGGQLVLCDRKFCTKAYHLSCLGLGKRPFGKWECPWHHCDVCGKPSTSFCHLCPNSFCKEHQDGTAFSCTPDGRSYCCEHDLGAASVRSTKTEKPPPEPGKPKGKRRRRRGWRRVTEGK
# [19] = target: T7, RNA-binding protein pos-1 (Caenorhabditis elegans, UniProt G5EF15); experiment: disruptors of C. elegans POS-1 RNA interaction – biochemical, fluorescence polarization, dose response (AID 1964);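 also: purified POS-1 fused to maltose binding protein made in E. coli; potency of compounds blocking POS-1 binding to fluorescent RNA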
# T7 sequence (G5EF15 whole entry): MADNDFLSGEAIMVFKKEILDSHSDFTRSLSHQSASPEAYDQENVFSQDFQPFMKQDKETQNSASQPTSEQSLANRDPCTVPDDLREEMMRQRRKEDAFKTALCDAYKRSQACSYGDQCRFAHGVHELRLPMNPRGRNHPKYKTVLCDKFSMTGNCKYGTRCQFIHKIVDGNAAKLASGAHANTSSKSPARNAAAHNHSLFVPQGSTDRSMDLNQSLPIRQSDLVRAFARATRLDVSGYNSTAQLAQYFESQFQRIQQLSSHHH
# Estrogen receptor beta = Estrogen receptor beta (Homo sapiens, UniProt Q92731); experiment: blockers of SRC-3 recruitment to ERβ – biochemical, ELISA, streptavidin-HRP readout, orthogonal assay, confirmation (AID 1060)
# Sequence of Estrogen receptor beta (Q92731 whole entry): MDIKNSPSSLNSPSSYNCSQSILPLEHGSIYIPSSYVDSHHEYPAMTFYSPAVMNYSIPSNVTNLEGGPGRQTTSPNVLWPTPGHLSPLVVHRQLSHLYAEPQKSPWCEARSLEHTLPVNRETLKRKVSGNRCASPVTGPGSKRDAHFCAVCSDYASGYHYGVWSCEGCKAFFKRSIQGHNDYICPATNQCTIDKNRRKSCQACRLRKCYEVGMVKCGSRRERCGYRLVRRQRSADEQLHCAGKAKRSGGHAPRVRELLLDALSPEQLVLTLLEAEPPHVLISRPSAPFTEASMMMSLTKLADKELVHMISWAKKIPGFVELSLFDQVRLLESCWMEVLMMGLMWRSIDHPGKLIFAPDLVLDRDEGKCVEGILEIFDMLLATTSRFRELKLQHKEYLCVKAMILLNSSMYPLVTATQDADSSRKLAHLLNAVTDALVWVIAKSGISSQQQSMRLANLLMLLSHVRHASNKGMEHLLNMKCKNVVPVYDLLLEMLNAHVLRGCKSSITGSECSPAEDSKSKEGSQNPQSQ
# Bcl-2-like protein 10 = target: T8, Bcl-2-like protein 10 (Homo sapiens, UniProt Q9HD36); experiment: Bcl-B/TR3 peptide binding disruption – biochemical, fluorescence polarization, FITC-TR3 peptide, selectivity assay for Bfl-1 inhibitor project, primary screen (AID 748);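 also: fluorescence polarization from a fluorescein-labelled TR3 peptide binding purified Bcl-B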
# T8 sequence (Q9HD36 whole entry): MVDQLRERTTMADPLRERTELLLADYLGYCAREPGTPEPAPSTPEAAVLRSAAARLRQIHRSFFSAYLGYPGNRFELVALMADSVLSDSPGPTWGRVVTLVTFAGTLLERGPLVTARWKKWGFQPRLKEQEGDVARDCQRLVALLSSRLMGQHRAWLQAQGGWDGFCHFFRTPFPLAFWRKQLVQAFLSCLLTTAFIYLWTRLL
# [20] = target: E3 ubiquitin-protein ligase Mdm2 (Homo sapiens, UniProt Q00987); experiment: MDM2-luc reporter signal enhancers, multi-concentration potency testing, MDM2 ubiquitin-protein ligase inhibitor program, whole-cell format, luminescence detection, 384-well microplate (AID 1394); format: functional;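 also: MDM2 E3 inhibitors raise luminescence so EC50 is for signal enhancement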
# Sequence of E3 ubiquitin-protein ligase Mdm2 (Q00987 whole entry): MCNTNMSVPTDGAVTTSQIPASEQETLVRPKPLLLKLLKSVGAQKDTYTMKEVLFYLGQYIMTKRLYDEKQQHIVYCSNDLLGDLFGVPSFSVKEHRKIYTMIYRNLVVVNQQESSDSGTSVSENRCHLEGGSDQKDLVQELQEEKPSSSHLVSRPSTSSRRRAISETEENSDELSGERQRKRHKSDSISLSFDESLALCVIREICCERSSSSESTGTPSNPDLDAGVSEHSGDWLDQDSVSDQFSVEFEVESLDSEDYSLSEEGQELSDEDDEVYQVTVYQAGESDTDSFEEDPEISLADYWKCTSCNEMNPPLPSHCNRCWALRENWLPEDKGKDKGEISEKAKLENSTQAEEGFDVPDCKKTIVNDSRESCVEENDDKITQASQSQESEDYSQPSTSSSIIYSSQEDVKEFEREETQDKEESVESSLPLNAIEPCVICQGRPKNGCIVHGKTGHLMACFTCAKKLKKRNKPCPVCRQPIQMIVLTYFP
# Sequence of Genome polyprotein (Hepatitis C virus, UniProt Q2Q167) (Q2Q167 whole entry): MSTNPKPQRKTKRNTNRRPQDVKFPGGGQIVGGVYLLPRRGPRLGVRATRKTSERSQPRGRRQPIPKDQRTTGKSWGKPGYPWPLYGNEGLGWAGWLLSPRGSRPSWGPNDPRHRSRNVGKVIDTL
smiles,measurement,setting,value
COc1cc(/C=C2\C(=O)N(c3ccccc3)N=C2C)ccc1Oc1ccc([N+](=O)[O-])cc1[N+](=O)[O-],IC50,Genome polyprotein [1],> 49.8 µM (not active)
same,IC50,SUMO-activating enzyme [2],24.5 µM (active)
same,IC50,SUMO-activating enzyme [3],5.91 µM (active)
same,IC50,Genome polyprotein [4],58 µM (active)
CCOC(=O)c1csc(NC(=O)c2ccc3c(c2)OCCO3)n1,EC50,Streptokinase A,> 150 µM (not active)
same,EC50,Streptococcus,> 150 µM (not active)
same,EC50,[5],> 150 µM (not active)
same,IC50,[6],1.23 µM (active)
CCC(NC(=O)Nc1nnc(C(F)(F)F)s1)(C(F)(F)F)C(F)(F)F,AC50,HEK293,7.24 µM (active)
same,EC50,[7],3.15 µM (active)
same,AC50,[8],4.15 µM (active)
same,EC50,[9],2.79 µM (active)
same,EC50,cells,> 29.9 µM (inactive)
same,AC50,[10],4.23 µM (active)
same,EC50,Streptococcus,3.27 µM (active)
same,EC50,[5],1.4 µM (active)
same,IC50,Galanin receptor type 3,> 3.32 µM (active)
same,IC50,[11],4.77 µM (active)
same,AC50,[12],6.87 µM (active)
COc1cc(CC(=O)Nc2sccc2C(N)=O)cc(OC)c1OC,IC50,[13],5.94 µM (active)
O=C(O)c1cccc(-n2cccc2/C=N/O)c1,IC50,[14],> 10 µM (not active)
same,IC50,[15],3.09 µM (active)
same,EC50,[16],> 300 µM (not active)
same,IC50,[17],91.6 µM (active)
same,AC50,[18],12.2 µM (active)
same,EC50,[19],> 300 µM (not active)
same,IC50,Estrogen receptor beta,< 0.023 µM (not active)
same,IC50,Bcl-2-like protein 10,18.3 µM (active)
Cc1ccc(NC(=O)CCC2CC(C)(C)OC2=O)cc1 (centres undefined),EC50,[20],777 µM (not active)
